# Data reported in patent publication US20260216346A1, “COMPOUND, NANOPARTICLES, MEDICINE, AND METHOD FOR PRODUCING NANOPARTICLES” (priority 2022, published 2026).
# Entries after “also recorded” stand apart in the source; their conditions may differ.
# What was measured:
# [1] = Drug release test in PBS under reduced glutathione treatment; assay type: physicochemical; details: nanoparticles 50 μM, PBS(−)/EtOH (7/3) pH 7.4 with 10 mM reduced GSH, 37° C., 1, 6, 24 or 48 hours, HPLC
# Description: In the present test, the release of SN-38 from compound (1-1) and compounds (2-1) to (2-3) in PBS to which the reduced GSH was added was evaluated.
# A reaction solution was prepared by adding the aqueous dispersion liquid (50 μM, 500 μL) of the nanoparticles of compound (1-1) or the aqueous dispersion liquid (50 μM, 500 μL) of the nanoparticles of any one of compounds (2-1) to (2-3) to 500 μL of PBS(−)/EtOH (7/3) (pH: 7.4) to which 10 mM of reduced glutathione (GSH) had been added.
# The above-described reaction solution was incubated at 37° C. for 1 hour, 6 hours, 24 hours, or 48 hours. 200 μL of the reaction solution was collected after the incubation. The collected reaction solution was mixed with 800 μL of a 3% acetic acid solution of acetonitrile/methanol (1/1). The obtained mixed solution was analyzed by high-performance liquid chromatography (detection wavelength: 365 nm) as an analysis target sample.
# [2] = Particle diameter of nanoparticles by SEM and DLS; assay type: physicochemical; details: aqueous dispersion liquid, 0.05 mM
# Description: 100 μL of a dimethyl sulfoxide solution of compound (1-1), prepared at 5 mM, was injected into 10 mL of water at room temperature using a syringe, and the mixture was stirred at 1,500 rpm for 2 seconds to obtain an aqueous dispersion liquid of nanoparticles. The final concentration of compound (1-1) in the aqueous dispersion liquid of the nanoparticles was 0.05 mM. It was confirmed by SEM and DLS that a particle diameter thereof was approximately 100 nm. […] A ClogP of compound (1-1) was 5.92.
# [3] = tested on: human breast cancer cell line MCF-7; assay: In vitro activity test: cell viability, Cell Counting Kit-8; assay type: cell-based; details: nanoparticle dispersion, 0.04 to 10 µM (in terms of SN-38), 48 hours, FIG. 2
# Description: A human breast cancer cell line MCF-7 was suspended in Dulbecco's modified Eagle's medium (DMEM) to which 10% fetal bovine serum (FBS) was added, thereby preparing a cell suspension of 2×10^5 cells/mL. The above-described cell suspension was seeded on a 96-well plate at 100 μL per well. The next day, the aqueous dispersion liquid of the nanoparticles of compound (1-1), the aqueous dispersion liquid of the nanoparticles of compound (2-1), or the aqueous dispersion liquid of the nanoparticles of SN-38, prepared as described above, was added to the MCF-7 cell culture solution so that the concentration thereof was 0.04 to 10 µM (in terms of SN-38). Thereafter, the cells were cultured at 37° C. and 5% CO2 for 48 hours. Thereafter, cell viability was measured by a colorimetric method using Cell Counting Kit-8 (manufactured by DOJINDO LABORATORIES.) and a microplate reader.
# [4] = Drug release test in PBS under reduced dithiothreitol treatment (1); assay type: physicochemical; details: nanoparticles 5 μM, PBS (-) pH 7.4 with 10 mM reduced DTT, 37° C., 1 hour or 24 hours, HPLC
# Description: In the present test, the release of SN-38 from compound (1-1) and compound (2-1) in PBS to which reduced DTT was added was evaluated.
# A solution was prepared by adding an aqueous dispersion liquid (5 μM, 500 μL) of nanoparticles of compound (1-1) or an aqueous dispersion liquid (5 μM, 500 μL) of nanoparticles of compound (2-1) to 500 µL of PBS (-) to which 10 mM of reduced dithiothreitol (DTT) had been added. “PBS (-)” used hereinafter is phosphate-buffered saline (pH: 7.4) containing NaCl (137 mM), KCl (2.7 mM), Na2HPO4 (10 mM), and KH2PO4 (1.76 mM).
# The above-described reaction solution was incubated at 37° C. for 1 hour or 24 hours. 200 μL of the reaction solution after incubation was collected. The collected reaction solution was mixed with 800 μL of a 3% acetic acid solution of acetonitrile/methanol (1/1). The obtained mixed solution was analyzed by high-performance liquid chromatography (detection wavelength: 365 nm) as an analysis target sample.
structure (smiles),measurement,setting,value
CCc1c2c(nc3ccc(OC(=O)C(C)(C)CCSSCCC(C)(C)C(=O)Oc4ccc5nc6c(c(CC)c5c4)Cn4c-6cc5c(c4=O)COC(=O)[C@]5(O)CC)cc13)-c1cc3c(c(=O)n1C2)COC(=O)[C@]3(O)CC [Compound (1-1)],release of SN-38,[1],compound (1-1) was reduced and SN-38 was increased with the passage of time
same,particle diameter of nanoparticles,[2],approximately 100 nm
same,cell viability of MCF-7,[3],higher cell viability of MCF-7 compared with SN-38; also recorded: lower than that of compound (2-1)
same,release of SN-38,[4],SN-38 was released
